From patent US8932597B2 (priority 2008, dated 2015) come the findings set out here.

The test system of one assay is HuM2e antibody 23K12. In kind it is binding, human.
Consider “149 (CTEVETPIRNEWGSRSCLTEVETPIRNEWGSRC; epitope peptide) [compound 149]”, for which the “Signal (peptides that bind to 23K21 and 8I10)” value is listed as 1348.

As to “282 (CSCLCEVGMSCLCEC; epitope peptide) [compound 282]”, the “Signal (peptides that bind to 23K21 and 8I10)” value was 2705.

For the substance “295 (MSLCTEVGMSCLTEV; epitope peptide) [compound 295]”, the “Signal (peptides that bind to 23K21 and 8I10)” value was 2026.

With “298 (SLCTEVGSCLCEC; epitope peptide) [compound 298]”, the “Signal (peptides that bind to 23K21 and 8I10)” value is recorded as 1967.

Regarding “305 (CSCLCEVGMSLLTEC; epitope peptide) [compound 305]”, the “Signal (peptides that bind to 23K21 and 8I10)” value is reported as 1925.

Turning to “306 (CSLLTECGMSLLTCV; epitope peptide) [compound 306]”, the “Signal (peptides that bind to 23K21 and 8I10)” value is listed as 1918.

As for “307 (SLCTEVGCLCTCV; epitope peptide) [compound 307]”, the “Signal (peptides that bind to 23K21 and 8I10)” value came to 1907.

Turning to “308 (MSLCTEVGMCLCTCV; epitope peptide) [compound 308]”, the “Signal (peptides that bind to 23K21 and 8I10)” value was found to be 1902.

Take “310 (MSCLCECGMSLLTEC; epitope peptide) [compound 310]”: the “Signal (peptides that bind to 23K21 and 8I10)” value came to 1887.

Consider “315 (MCLCTCVGCSLLTEC; epitope peptide) [compound 315]”, for which the “Signal (peptides that bind to 23K21 and 8I10)” value came out at 1823.

As for “319 (SLLTECGSLLTCV; epitope peptide) [compound 319]”, the “Signal (peptides that bind to 23K21 and 8I10)” value was determined as 1800.

Regarding “322 (SKLTEVETPIRNEWGCRCNDSSD; epitope peptide) [compound 322]”, the “Signal (peptides that bind to 23K21 and 8I10)” value was found to be 1784.

In the case of “323 (SLCTEVGSLLTCV; epitope peptide) [compound 323]”, the “Signal (peptides that bind to 23K21 and 8I10)” value came to 1781.

As to “325 (SLLTECGSLLTEV; epitope peptide) [compound 325]”, the “Signal (peptides that bind to 23K21 and 8I10)” value was 1770.

With “331 (MSLLTECGMSLLTCV; epitope peptide) [compound 331]”, the “Signal (peptides that bind to 23K21 and 8I10)” value was found to be 1690.

For “332 (SALTEVETPIRNEWGCRCNDSSD; epitope peptide) [compound 332]”, the “Signal (peptides that bind to 23K21 and 8I10)” value is given as 1689.

Regarding “333 (SLLTCVGSLLTEC; epitope peptide) [compound 333]”, the “Signal (peptides that bind to 23K21 and 8I10)” value worked out at 1683.

Consider “335 (CSCLCEVGCSLLTEC; epitope peptide) [compound 335]”, for which the “Signal (peptides that bind to 23K21 and 8I10)” value was 1677.

For “340 (MSCLCECGCSLLTEC; epitope peptide) [compound 340]”, the “Signal (peptides that bind to 23K21 and 8I10)” value worked out at 1652.

In the case of “344 (SMLTEVETPIRNEWGCRCNDSSD; epitope peptide) [compound 344]”, the “Signal (peptides that bind to 23K21 and 8I10)” value stood at 1622.

With “348 (SLLTECGCSLLTEV; epitope peptide) [compound 348]”, the “Signal (peptides that bind to 23K21 and 8I10)” value was 1597.

Consider “355 (SCLCECGCSLLTEV; epitope peptide) [compound 355]”, for which the “Signal (peptides that bind to 23K21 and 8I10)” value was 1555.

Consider “361 (SCLCECGCSLLTEC; epitope peptide) [compound 361]”, for which the “Signal (peptides that bind to 23K21 and 8I10)” value amounted to 1520.

For the substance “362 (CSLLTECGMCLLTEV; epitope peptide) [compound 362]”, the “Signal (peptides that bind to 23K21 and 8I10)” value stood at 1517.

As to “367 (SLCTEVGSLLTEC; epitope peptide) [compound 367]”, the “Signal (peptides that bind to 23K21 and 8I10)” value amounted to 1495.

Consider “369 (SLLTEAETPIRNEWGCRCNDSSD; epitope peptide) [compound 369]”, for which the “Signal (peptides that bind to 23K21 and 8I10)” value is given as 1481.

Take “374 (SLLTECGCSLLTEC; epitope peptide) [compound 374]”: the “Signal (peptides that bind to 23K21 and 8I10)” value turned out to be 1451.

With “376 (CSLLTECGMSLLTEC; epitope peptide) [compound 376]”, the “Signal (peptides that bind to 23K21 and 8I10)” value is listed as 1445.

Take “378 (SLLTECGSLLTEC; epitope peptide) [compound 378]”: the “Signal (peptides that bind to 23K21 and 8I10)” value was found to be 1426.

With “382 (CSLLTECGSLLTEV; epitope peptide) [compound 382]”, the “Signal (peptides that bind to 23K21 and 8I10)” value is listed as 1393.

Take “391 (SNLTEVETPIRNEWGCRCNDSSD; epitope peptide) [compound 391]”: the “Signal (peptides that bind to 23K21 and 8I10)” value came to 1345.

As for “455 (CLCTCVGSLLTEC; epitope peptide) [compound 455]”, the “Signal (peptides that bind to 23K21 and 8I10)” value stood at 1303.

Regarding “458 (CSLLTECGSCLTEV; epitope peptide) [compound 458]”, the “Signal (peptides that bind to 23K21 and 8I10)” value is recorded as 1278.

The test system of a further assay is anti-M2 human monoclonal antibody Z3G1. In kind it is binding.
On to “1557 (CLCTCVGSLLCEV; epitope peptide) [compound 1557]”, for which the “Signal (peptides that show specific binding to Z3G1)” value stood at 2246.

Take “1558 (SCLCECGSLLCEV; epitope peptide) [compound 1558]”: the “Signal (peptides that show specific binding to Z3G1)” value came to 1747.

For “1559 (SLLCEVGSLLTCV; epitope peptide) [compound 1559]”, the “Signal (peptides that show specific binding to Z3G1)” value is reported as 1972.

In the case of “1560 (SLLCEVGCSCLCEV; epitope peptide) [compound 1560]”, the “Signal (peptides that show specific binding to Z3G1)” value was 2112.

“1561 (SLLCEVGCLCTCV; epitope peptide) [compound 1561]”: the “Signal (peptides that show specific binding to Z3G1)” value worked out at 2331.

For the substance “1562 (SLLCEVGSCLCEC; epitope peptide) [compound 1562]”, the “Signal (peptides that show specific binding to Z3G1)” value is reported as 2614.

Take “1563 (DLLTEVETPIRNEWGCRCNDSSD; epitope peptide) [compound 1563]”: the “Signal (peptides that show specific binding to Z3G1)” value was found to be 2320.

In the case of “1564 (ELLTEVETPIRNEWGCRCNDSSD; epitope peptide) [compound 1564]”, the “Signal (peptides that show specific binding to Z3G1)” value was 2201.

Regarding “1565 (FLLTEVETPIRNEWGCRCNDSSD; epitope peptide) [compound 1565]”, the “Signal (peptides that show specific binding to Z3G1)” value is 1018.

In the case of “1566 (GLLTEVETPIRNEWGCRCNDSSD; epitope peptide) [compound 1566]”, the “Signal (peptides that show specific binding to Z3G1)” value worked out at 2321.

As to “1567 (HLLTEVETPIRNEWGCRCNDSSD; epitope peptide) [compound 1567]”, the “Signal (peptides that show specific binding to Z3G1)” value turned out to be 1946.

For the substance “1568 (ILLTEVETPIRNEWGCRCNDSSD; epitope peptide) [compound 1568]”, the “Signal (peptides that show specific binding to Z3G1)” value came to 1044.

With “1569 (KLLTEVETPIRNEWGCRCNDSSD; epitope peptide) [compound 1569]”, the “Signal (peptides that show specific binding to Z3G1)” value was determined as 1826.

As to “1570 (MLLTEVETPIRNEWGCRCNDSSD; epitope peptide) [compound 1570]”, the “Signal (peptides that show specific binding to Z3G1)” value came out at 2126.

With “1571 (NLLTEVETPIRNEWGCRCNDSSD; epitope peptide) [compound 1571]”, the “Signal (peptides that show specific binding to Z3G1)” value stood at 2135.

Regarding “1572 (PLLTEVETPIRNEWGCRCNDSSD; epitope peptide) [compound 1572]”, the “Signal (peptides that show specific binding to Z3G1)” value is listed as 1641.

Regarding “1573 (QLLTEVETPIRNEWGCRCNDSSD; epitope peptide) [compound 1573]”, the “Signal (peptides that show specific binding to Z3G1)” value worked out at 1627.

As to “1574 (RLLTEVETPIRNEWGCRCNDSSD; epitope peptide) [compound 1574]”, the “Signal (peptides that show specific binding to Z3G1)” value turned out to be 1338.

As to “1575 (WLLTEVETPIRNEWGCRCNDSSD; epitope peptide) [compound 1575]”, the “Signal (peptides that show specific binding to Z3G1)” value is reported as 2180.

On to “1576 (YLLTEVETPIRNEWGCRCNDSSD; epitope peptide) [compound 1576]”, for which the “Signal (peptides that show specific binding to Z3G1)” value is 1882.

Turning to “1577 (SLDTEVETPIRNEWGCRCNDSSD; epitope peptide) [compound 1577]”, the “Signal (peptides that show specific binding to Z3G1)” value amounted to 1505.

For “1578 (SLLAEVETPIRNEWGCRCNDSSD; epitope peptide) [compound 1578]”, the “Signal (peptides that show specific binding to Z3G1)” value is on record as 2356.

“1579 (SLLDEVETPIRNEWGCRCNDSSD; epitope peptide) [compound 1579]”: the “Signal (peptides that show specific binding to Z3G1)” value is listed as 2276.

“1580 (SLLEEVETPIRNEWGCRCNDSSD; epitope peptide) [compound 1580]”: the “Signal (peptides that show specific binding to Z3G1)” value amounted to 2420.

On to “1581 (SLLFEVETPIRNEWGCRCNDSSD; epitope peptide) [compound 1581]”, for which the “Signal (peptides that show specific binding to Z3G1)” value stood at 2137.

With “1582 (SLLGEVETPIRNEWGCRCNDSSD; epitope peptide) [compound 1582]”, the “Signal (peptides that show specific binding to Z3G1)” value is given as 2301.

As for “1583 (SLLHEVETPIRNEWGCRCNDSSD; epitope peptide) [compound 1583]”, the “Signal (peptides that show specific binding to Z3G1)” value was found to be 2462.

On to “1584 (SLLIEVETPIRNEWGCRCNDSSD; epitope peptide) [compound 1584]”, for which the “Signal (peptides that show specific binding to Z3G1)” value worked out at 1899.

In the case of “1585 (SLLKEVETPIRNEWGCRCNDSSD; epitope peptide) [compound 1585]”, the “Signal (peptides that show specific binding to Z3G1)” value amounted to 2611.

Turning to “1586 (SLLLEVETPIRNEWGCRCNDSSD; epitope peptide) [compound 1586]”, the “Signal (peptides that show specific binding to Z3G1)” value turned out to be 2344.

Regarding “1587 (SLLNEVETPIRNEWGCRCNDSSD; epitope peptide) [compound 1587]”, the “Signal (peptides that show specific binding to Z3G1)” value stood at 2425.

Regarding “1588 (SLLREVETPIRNEWGCRCNDSSD; epitope peptide) [compound 1588]”, the “Signal (peptides that show specific binding to Z3G1)” value is reported as 2286.

Take “1589 (SLLVEVETPIRNEWGCRCNDSSD; epitope peptide) [compound 1589]”: the “Signal (peptides that show specific binding to Z3G1)” value came out at 1932.

Regarding “1590 (SLLWEVETPIRNEWGCRCNDSSD; epitope peptide) [compound 1590]”, the “Signal (peptides that show specific binding to Z3G1)” value is 2221.

On to “1591 (SLLYEVETPIRNEWGCRCNDSSD; epitope peptide) [compound 1591]”, for which the “Signal (peptides that show specific binding to Z3G1)” value amounted to 2181.

On to “CSLLTEVGSLLTEV (epitope peptide) [SEQ ID NO: 283]”, for which the “Binding to Z3G1 (in words)” value was “recognized”.

As to “MSLLTEVETPIRNEWGCRCN (epitope peptide) [SEQ ID NO: 1149]”, the “Binding to Z3G1 (in words)” value is on record as “very best specific binder”.
